{
  "source": "patent US12409184B2",
  "about": "“Iloprost compositions and formulations thereof” (BTG INTERNATIONAL INC., priority 2020, dated 2025)",
  "key": {"[1]": {"tested_on": "subjects with symptomatic Raynaud's Phenomenon (RP) secondary to Systemic Sclerosis (SSc)", "assay": "Example 1 double-blind placebo-controlled study, ePRO diary efficacy on symptomatic RP attacks", "type": "in vivo, human", "settings": "for Weekly Frequency of Symptomatic RP Attacks, Treatment comparison of change vs placebo, LS mean difference in change: ANCOVA, N = 17 per group, p 0.8498", "excerpt": "This was a multicenter, double-blind, randomized, placebo-controlled study to provide an initial evaluation of the effect of iloprost on the symptomatic relief of RP attacks in subjects with SSc. As a pilot study, it was not powered to provide a definitive estimate of the effect of iloprost. Importantly, this study tested the feasibility of collecting the study endpoints and logistics of study operations that included, among other things, an electronic patient-reported outcomes (ePRO) diary for the evaluation of subject response to the treatment, as well as the infusion workflow for this multiday treatment. Subjects were allowed to continue receiving stable standard of care therapies for the management of symptomatic RP (e.g., calcium channel blockers, angiotensin-converting enzyme inhibitors, statins, fluoxetine, and low-dose acetylsalicylic acid) or may have participated without the use of background standard of care therapies.\nThe primary objective was to evaluate the efficacy of iloprost compared to placebo on the change in the weekly frequency of symptomatic Raynaud's Phenomenon (RP) attacks from baseline in subjects with symptomatic RP secondary to Systemic Sclerosis (SSc). The exploratory objectives were the following: • To evaluate the efficacy of iloprost compared to placebo on the severity of RP attack symptoms • To evaluate the efficacy of iloprost compared to placebo on the Raynaud's Condition Score • To evaluate the efficacy of iloprost compared to placebo on hand function as assessed by the Cochin Hand Function Scale (CHFS) • To evaluate the safety and tolerability of iloprost • To evaluate the efficacy of iloprost compared to placebo on symptomatic RP attack duration • To evaluate the efficacy of iloprost compared to placebo on the worst pain associated with symptomatic RP • To evaluate the efficacy of iloprost compared to placebo on the subject assessment of overall improvement in symptomatic RP • To evaluate the pharmacokinetics (PK) of iloprost in subjects with symptomatic RP secondary to SSc\nThe study consisted of an up to 30-day screening period during which subjects completed a daily ePRO diary to record information regarding all symptomatic RP attacks (e.g., severity of symptoms, duration, and hand function). […] The baseline ePRO diary completion period may have been extended beyond 10 days in order to accommodate the preferred Monday through Friday dosing schedule. The ePRO symptomatic RP attack data from this time period were used for the calculation of the baseline frequency of symptomatic RP attacks.\nSubjects were randomized in a 1:1 ratio to iloprost injection for IV use or placebo. Randomization was stratified based on the use of phosphodiesterase inhibitors at screening. Study drug administration began on Day 1, and subjects received study drug for 5 consecutive days (e.g., Monday through Friday) as an IV infusion over 6 hours each day via a peripheral line (NovaCath™ Integrated IV Catheter System) or a peripherally inserted central catheter using an infusion pump.\nOn Day 1, study drug was initiated at a starting dose of 0.5 ng/kg/min, and dose increases occurred every 30 minutes (+5 minutes) in increments of 0.5 ng/kg/min up to 2.0 ng/kg/min or the individual tolerated dose. If dose-limiting adverse events (e.g., headache, flushing, jaw pain, myalgia, nausea, or vomiting) occurred that could not be tolerated by the subject, or if the subject experienced symptomatic hypotension, then the dose was reduced in a step-wise manner by 0.5 ng/kg/min every 30 minutes (+5 minutes) until a tolerated dose was determined or the infusion was stopped until the symptoms resolved at which point the study drug was reinitiated at a previously tolerated dose. If symptomatic hypotension or a dose-limiting adverse event occurred during administration of iloprost at the starting dose (i.e., 0.5 ng/kg/min), the infusion was reduced to 0.25 ng/kg/min. […]"}, "[2]": {"assay": "Example 1 PK sub-study, plasma iloprost by LC-MS", "type": "in vivo, human", "settings": "for CLss, Mean (SD): n 1", "experimental": "Eligible subjects were given the option to participate in a PK sub-study. Subjects who participated in the sub-study provided plasma samples for PK analysis. The samples were analyzed for iloprost concentrations using validated liquid chromatography mass spectrometry methods.\nThe following PK parameters were calculated whenever possible, based on the plasma concentrations of iloprost: • Steady state plasma concentration just before infusion was stopped • Area under the plasma concentration versus time curve (AUC) from time of dosing to the last time point with measurable concentration (AUC0-last) • AUC from time 0 extrapolated to infinity (AUC0-inf) • Percentage of AUC obtained by extrapolation (AUCextrape %) • Terminal elimination constant (λz) • Plasma terminal elimination half-life (t½) • Plasma clearance (CL), calculated as dose/AUC0-inf • Volume of distribution (V), calculated as dose/(λz×AUC0-inf) Safety"}},
  "data": [
    {"compound": "CC#CCC(C)[C@H](O)/C=C/[C@@H]1[C@H]2C/C(=C/CCCC(=O)O)C[C@H]2C[C@H]1O", "note": "(stereo partly drawn) [Iloprost, (5E)-5-[(3aS,4R,5R,6aS)-5-hydroxy-4-[(E,3S)-3-hydroxy-4-methyloct-1-en-6-ynyl]-3,3a,4,5,6,6a-hexahydro-1H-pentalen-2-ylidene]pentanoic acid]", "values": [
      {"measurement": "Average Overall Severity of Symptomatic RP Attacks, Baseline, Mean", "setting": "[1]; 11-point NRS (0 to 10), before treatment, N = 17", "result": 5.30},
      {"measurement": "Average Overall Severity of Symptomatic RP Attacks, Treatment comparison of change vs placebo, LS mean difference in change", "setting": "[1]; 11-point NRS, p 0.4409", "result": "−0.47"},
      {"measurement": "Weekly Frequency of Symptomatic RP Attacks, Treatment comparison of change vs placebo, LS mean difference in change", "setting": "[1]", "result": "−0.77"},
      {"measurement": "Weekly Frequency of Symptomatic RP Attacks, Treatment comparison of change vs placebo, LS mean difference in change", "setting": "[1]; listed as iloprost", "result": "not statistically significant"},
      {"measurement": "Exploratory endpoints (overall severity, Raynaud's Condition Score, weekly duration, worst symptoms, PGI-S and PGI-C): differences in the iloprost group compared to placebo", "setting": "[1]; baseline to double-blind endpoint", "result": "not statistically significant"},
      {"measurement": "Weekly Frequency of Symptomatic RP Attacks, Treatment comparison of change vs placebo, LS mean difference in change (treatment effect)", "setting": "[1]; subgroup Randomization Date After 3 Jun. 2019, p 0.7116", "result": 2.04},
      {"measurement": "CLss, Mean (SD)", "setting": "[2]; Maximum Tolerated Dose Level 1.00 ng/kg/min", "result": "91.22 (NA) L/h"},
      {"measurement": "CLss, Mean (SD)", "setting": "[2]; Maximum Tolerated Dose Level 1.50 ng/kg/min", "result": "6.01 (NA) L/h"},
      {"measurement": "Css, Geometric mean (geometric CV %)", "setting": "[2]; Maximum Tolerated Dose Level 1.50 ng/kg/min, n 2", "result": "32.90 (284.8) pg/mL"},
      {"measurement": "CLss, Mean (SD)", "setting": "[2]; Maximum Tolerated Dose Level 2.00 ng/kg/min", "result": "64.53 (NA) L/h"}
    ]}
  ]
}
